Earlier results on three compounds are cited in publication PMC10360060, “Electroosmotic Perfusion, External Microdialysis: Simulation and Experiment” (ACS Chemical Neuroscience, 2023).

Like-named read-outs stand apart in the source and are kept apart here.

Data set [1] relates to insulin regulated aminopeptidase (IRAP). Particulars: perfusion of inhibitor in rat neocortex in vivo, online capillary LC-MS2. The text has this:
Following our discovery that brain tissue has a significant ζ-potential,[36] we learned how to use this property of brain tissue to infuse solutes into brain and organotypic hippocampal slice cultures (OHSCs) using controlled electrical current[37],[38] and to infuse substrates of known ectoenzymes and determine information about these enzymes in OHSCs[39]−[43] and in vivo.[44] For the in vivo work, direct laser writing by two-photon polymerization was used to manufacture a device (Supporting Information, section S3). A pointed, narrow capillary adjacent to a microdialysis probe was the source ...

For data set [2] the following is noted: saline solution, parameter used in simulations, ref Li and Carr, Scheibel, Häckel et al.[65]−[67]. The text has this: Table 1 List of Parameters Used in Simulations | column: magnitude
Setting [3] is: 37 °C (body temperature, tissue).

In the case of `CCOC(=O)C1=C(NC(C)=O)Oc2cc(O)ccc2C1c1cccnc1` (centres unmarked) [HFI-419], the “inhibition of YGGFL hydrolysis” value in data set [1] is recorded as “dose-dependent inhibition”.
As to GGFL [hydrolysis product of YGGFL], the Diffusion coefficients in data set [2] (22 °C (lab temperature)) was 5.0 × 10^–10 m^2/s; in data set [2] (setting [3]), 6.5 × 10^–10 m^2/s.
Turning to “YGGFL [leucine enkephalin, natural neuropeptide substrate infused through tissue]”, the Diffusion coefficients was 4.2 × 10^–10 m^2/s in data set [2] (22 °C (lab temperature)) and 5.5 × 10^–10 m^2/s in data set [2] (setting [3]).
